Laboratory results reported in ChEMBL document CHEMBL3885881, “DrugMatrix”.

Organism: Rattus norvegicus
Test: DrugMatrix - Regimen: Daily Repeat
Assay type: toxicity, organism-based, Sprague-Dawley
Design: regimen Daily Repeat, gender Male, age 6-8 weeks
Details: in vivo, po, route oral GAVAGE, […]; for ABSOLUTE BASOPHIL / ABSOLUTE EOSINOPHIL / ABSOLUTE LYMPHOCYTE / ABSOLUTE MONOCYTE / ABSOLUTE SEGMENTED NEUTROPHIL / BASOPHIL / EOSINOPHIL / ERYTHROCYTE COUNT / HEMATOCRIT / HEMOGLOBIN / LEUKOCYTE COUNT / LYMPHOCYTE / MEAN CORPUSCULAR HEMOGLOBIN / MEAN CORPUSCULAR HEMOGLOBIN CONCENTRATION / MEAN CORPUSCULAR VOLUME / MONOCYTE / NEUTROPHIL / NUCLEATED RED BLOOD CELLS / PLATELET COUNT: tissue Blood; for ALANINE AMINOTRANSFERASE / ALBUMIN / ALKALINE PHOSPHATASE / ASPARTATE AMINOTRANSFERASE / BLOOD UREA NITROGEN / CARBON DIOXIDE / CHLORIDE / CHOLESTEROL / CREATINE PHOSPHOKINASE / CREATININE / GLUCOSE / LACTATE DEHYDROGENASE / LIPASE / PHOSPHORUS / POTASSIUM / SODIUM / TOTAL BILIRUBIN / TOTAL PROTEIN / URIC ACID: tissue Plasma
[1] = 0 mg/kg, 72 h, dose level Control, time 3 day
[2] = 0 mg/kg, 120 h, dose level Control, time 5 day
[3] = 0 mg/kg, dose level Control, time 28 day
[4] = 20 mg/kg, 72 h, dose level Low, time 3 day

CCCCCCCCCc1ccc(O)cc1 [4-NONYLPHENOL]
ABSOLUTE BASOPHIL [1]: 0 CELLS/uL
ABSOLUTE EOSINOPHIL [1]: 0 CELLS/uL
ABSOLUTE LYMPHOCYTE [1]: 11091.17 CELLS/uL
ABSOLUTE MONOCYTE [1]: 172.17 CELLS/uL
ABSOLUTE SEGMENTED NEUTROPHIL [1]: 1186.67 CELLS/uL
BASOPHIL [1]: 0%
EOSINOPHIL [1]: 0%
ERYTHROCYTE COUNT [1]: 5.87 x10E6/uL
HEMATOCRIT [1]: 36.87%
HEMOGLOBIN [1]: 14.03 G/DL
LEUKOCYTE COUNT [1]: 12.45 x10E3/uL
LYMPHOCYTE [1]: 88.67%
MEAN CORPUSCULAR HEMOGLOBIN [1]: 23.93 pg
MEAN CORPUSCULAR HEMOGLOBIN CONCENTRATION [1]: 38.1 G/DL
MEAN CORPUSCULAR VOLUME [1]: 62.73 fL
MONOCYTE [1]: 1.5%
NEUTROPHIL [1]: 9.83%
NUCLEATED RED BLOOD CELLS [1]: 0 /100WBC
PLATELET COUNT [1]: 1150.33 x10E3/uL
ALANINE AMINOTRANSFERASE [1]: 67.17 u/L
ALBUMIN [1]: 4.03 G/DL
ALKALINE PHOSPHATASE [1]: 462.5 u/L
ASPARTATE AMINOTRANSFERASE [1]: 88 u/L
BLOOD UREA NITROGEN [1]: 13.17 mg/dL
CARBON DIOXIDE [1]: 29.33 mmol/L
CHLORIDE [1]: 101 MEQ/L
CHOLESTEROL [1]: 69.17 mg/dL
CREATINE PHOSPHOKINASE [1]: 292.5 u/L
CREATININE [1]: 0.17 mg/dL
GLUCOSE [1]: 167.5 mg/dL
LACTATE DEHYDROGENASE [1]: 198.5 u/L
LIPASE [1]: 10.67 u/L
PHOSPHORUS [1]: 11.73 mg/dL
POTASSIUM [1]: 5.91 MEQ/L
SODIUM [1]: 143.3 MEQ/L
TOTAL BILIRUBIN [1]: 0.18 mg/dL
TOTAL PROTEIN [1]: 5.7 G/DL
URIC ACID [1]: 1.3 mg/dL
ABSOLUTE BASOPHIL [2]: 0 CELLS/uL
ABSOLUTE EOSINOPHIL [2]: 64.33 CELLS/uL
ABSOLUTE LYMPHOCYTE [2]: 12494.67 CELLS/uL
ABSOLUTE MONOCYTE [2]: 117 CELLS/uL
ABSOLUTE SEGMENTED NEUTROPHIL [2]: 1340.67 CELLS/uL
NUCLEATED RED BLOOD CELLS [2]: 0 /100WBC
CARBON DIOXIDE [2]: 29.17 mmol/L
LACTATE DEHYDROGENASE [2]: 229.17 u/L
LIPASE [2]: 10.83 u/L
URIC ACID [2]: 1.55 mg/dL
BASOPHIL [3]: 0.42%
EOSINOPHIL [3]: 0.58%
ERYTHROCYTE COUNT [3]: 8.06 x10E6/uL
HEMATOCRIT [3]: 48.44%
HEMOGLOBIN [3]: 16.34 G/DL
LEUKOCYTE COUNT [3]: 13.04 x10E3/uL
LYMPHOCYTE [3]: 85.12%
MEAN CORPUSCULAR HEMOGLOBIN [3]: 20.26 pg
MEAN CORPUSCULAR HEMOGLOBIN CONCENTRATION [3]: 33.74 G/DL
MEAN CORPUSCULAR VOLUME [3]: 60.1 fL
MONOCYTE [3]: 1.44%
NEUTROPHIL [3]: 11.28%
PLATELET COUNT [3]: 1226 x10E3/uL
ALANINE AMINOTRANSFERASE [3]: 28.6 u/L
ALBUMIN [3]: 3.94 G/DL
ALKALINE PHOSPHATASE [3]: 254.6 u/L
ASPARTATE AMINOTRANSFERASE [3]: 67.8 u/L
BLOOD UREA NITROGEN [3]: 10.4 mg/dL
CHLORIDE [3]: 104.6 MEQ/L
CHOLESTEROL [3]: 57.6 mg/dL
CREATINE PHOSPHOKINASE [3]: 224.8 u/L
CREATININE [3]: 0.4 mg/dL
GLUCOSE [3]: 140.6 mg/dL
PHOSPHORUS [3]: 10.66 mg/dL
POTASSIUM [3]: 6.58 MEQ/L
SODIUM [3]: 148.6 MEQ/L
TOTAL BILIRUBIN [3]: 0.24 mg/dL
TOTAL PROTEIN [3]: 6.64 G/DL
ABSOLUTE BASOPHIL [4]: 0 CELLS/uL
ABSOLUTE EOSINOPHIL [4]: 45.67 CELLS/uL
ABSOLUTE LYMPHOCYTE [4]: 11853.67 CELLS/uL
ABSOLUTE MONOCYTE [4]: 45.67 CELLS/uL
ABSOLUTE SEGMENTED NEUTROPHIL [4]: 988.33 CELLS/uL
BASOPHIL [4]: 0%
EOSINOPHIL [4]: 0.33%
ERYTHROCYTE COUNT [4]: 5.99 x10E6/uL
HEMATOCRIT [4]: 37.03%
HEMOGLOBIN [4]: 14.3 G/DL
LEUKOCYTE COUNT [4]: 12.93 x10E3/uL
LYMPHOCYTE [4]: 91.67%
MEAN CORPUSCULAR HEMOGLOBIN [4]: 23.9 pg
MEAN CORPUSCULAR HEMOGLOBIN CONCENTRATION [4]: 38.6 G/DL
MEAN CORPUSCULAR VOLUME [4]: 61.9 fL
MONOCYTE [4]: 0.33%
NEUTROPHIL [4]: 7.67%
NUCLEATED RED BLOOD CELLS [4]: 0 /100WBC
PLATELET COUNT [4]: 1126 x10E3/uL
ALANINE AMINOTRANSFERASE [4]: 75.33 u/L
ALBUMIN [4]: 3.8 G/DL
ALKALINE PHOSPHATASE [4]: 451.33 u/L
ASPARTATE AMINOTRANSFERASE [4]: 100 u/L
BLOOD UREA NITROGEN [4]: 13 mg/dL
CARBON DIOXIDE [4]: 24.67 mmol/L
CHLORIDE [4]: 102.67 MEQ/L
CHOLESTEROL [4]: 62.67 mg/dL
CREATINE PHOSPHOKINASE [4]: 371 u/L
CREATININE [4]: 0.19 mg/dL
GLUCOSE [4]: 168.67 mg/dL
LACTATE DEHYDROGENASE [4]: 255.33 u/L
LIPASE [4]: 9.67 u/L
PHOSPHORUS [4]: 11.97 mg/dL
POTASSIUM [4]: 5.3 MEQ/L
SODIUM [4]: 143.8 MEQ/L
TOTAL BILIRUBIN [4]: 0.2 mg/dL
TOTAL PROTEIN [4]: 5.33 G/DL
URIC ACID [4]: 1.77 mg/dL
